How the values were obtained:
[1] = UV irradiation in solution; settings: cited from earlier work
[2] = protonated peptides irradiated in the gas phase; VUV or soft X-ray photon, carbon ions; settings: cited from earlier work
[3] = isolated peptide ions in the gas phase (ion trap), UV photoabsorption at 220 nm; settings: up to 100–500 ms
[4] = deprotonated peptide anions in the gas phase, UV photoabsorption at 220 nm (ion trap); settings: up to 100–500 ms
[5] = gas phase; photoabsorption in the VUV as well as X-ray photon energy range (30 to 545 eV); settings: cited from earlier work

cleaved bond [4]	Substance	cleaved bond [1]	cleaved bond [2]	cleaved bond [3]	cleaved bond [5]
	(POG)10	Gly-Pro, major	Gly-Pro, major		
	(PPG)10	Gly-Pro, major	Gly-Pro, major		
G-P and P-P and E-P and A-P	PGGPPGPKGNSGEPGAPGSKGDTGAK			Gly-Pro, major and Pro-Pro and Glu-Pro and Ala-Pro and Asp-Thr and K-G	Gly-Pro, major

— PMC11341654 (2024)
